Results: patent EP1149106B1, “4,5-AZOLO-OXINDOLES” (F. HOFFMANN-LA ROCHE AG, priority 1998, dated 2000)

target: T1, Cyclin E/CDK2 (Homo sapiens, UniProt P24941); experiment: CDK2 FlashPlate Assay (Rb phosphorylation, 33P-ATP); format: biochemical; conditions: Concentration 0.5 µM
T1 construct: made in house; host or cells: insect cells
Protocol: To determine inhibition of CDK2 activity, purified recombinant retinoblastoma (Rb) protein was coated on 96 well FlashPlates (New England Nuclear, Boston, MA). Rb is a natural substrate for phosphorylation by CDK2 (Herwig and Strauss Eurr. J. Biochem., Vol. 246 (1997) pp. 581-601 and references therein). Recombinant active human Cyclin E/CDK2 complexes were partially purified from extracts of insect cells. The active Cyclin E/CDK2 was added to the Rb-coated FlashPlates along with ^33P-ATP and dilutions of test compounds. Plates were incubated for 25 minutes at room temperature with shaking, then washed and counted in the Topcount scintillation counter (Packard Instrument Co., Downers Grove, IL). Dilutions of test compounds were tested in duplicate in each assay. The percent inhibition of Rb phosphorylation, which is a measure of the inhibition of CDK2 activity, was determined according to the following formula: [formula] where "test compound" refers to the average counts per minute of the test duplicates, "nonspecific" refers to the average counts per minute when no Cyclin E/CDK2 was added, and "total" refers to the average counts per minute when no compound was added.

| SMILES | inhibition at 0.5 µM |
| --- | --- |
| COc1cc[nH]c1/C=C1\C(=O)Nc2ccc3[nH]c(NCCCc4ccccc4)nc3c21 [XX, (Z)-8-[(3-Methoxy-1H-pyrrol-2-yl)methylene]-2-[N-(3-phenylpropyl)amino]-3,6,7,8-tetrahydro-pyrrolo[3,2-e]benzimidazol-7-one] | < 50% |
| COc1cc[nH]c1/C=C1\C(=O)Nc2ccc3[nH]c(NCc4ccc5c(c4)OCO5)nc3c21 [VV, (Z)-2-[N-(1,3-Benzodioxol-5-yl)methylamino]-8-[(3-methoxy-1H-pyrrol-2-yl)methylene]-3,6,7,8-tetrahydro-pyrrolo[3,2-e]-benzimidazol-7-one] | < 50% |
| COc1ccc(Nc2nc3c4c(ccc3[nH]2)NC(=O)/C4=C\c2[nH]ccc2OC)cc1 [Z, (Z)-2-[N-(4-Methoxyphenyl)amino]-8-[(3-methoxy-1H-pyrrol-2-yl)methylene]-3,6,7,8-tetrahydro-pyrrolo[3,2-e]benzimidazol-7-one] | < 50% |
| COc1ccccc1Nc1nc2c3c(ccc2[nH]1)NC(=O)/C3=C\c1[nH]ccc1OC [II, (Z)-2-[N-(2-Methoxyphenyl)amino]-8-[(3-methoxy-1H-pyrrol-2-yl)methylene]-3,6,7,8-tetrahydro-pyrrolo[3,2-e]benzimidazol-7-one] | < 50% |
| COc1cc[nH]c1/C=C1\C(=O)Nc2ccc3[nH]c(Nc4cccc(C(C)=O)c4)nc3c21 [BB, (Z)-2-[N-(3-Acetylphenyl)amino]-8-[(3-methoxy-1H-pyrrol-2-yl)methylene]-3,6,7,8-tetrahydro-pyrrolo[3,2-e]benzimidazol-7-one] | < 50% |
| COc1ccc(Nc2nc3c4c(ccc3[nH]2)NC(=O)/C4=C\c2[nH]ccc2OC)cc1OC [Y, (Z)-2-[N-(3,4-Dimethoxyphenyl)amino]-8-[(3-methoxy-1H-pyrrol-2-yl)methylene]-3,6,7,8-tetrahydro-pyrrolo[3,2-e]benzimidazol-7-one] | < 50% |
| COc1ccc(CCNc2nc3c4c(ccc3[nH]2)NC(=O)/C4=C\c2[nH]ccc2OC)cc1OC [GG, (Z)-2-[N-[2-(3,4-Dimethoxyphenyl)ethyl]amino]-8-[(3-methoxy-1H-pyrrol-2-yl)methylene]-3,6,7,8-tetrahydro-pyrrolo[3,2-e]-benzimidazol-7-one] | < 50% |
| COc1cc[nH]c1/C=C1\C(=O)Nc2ccc3[nH]c(Nc4ccc5c(c4)CCC5)nc3c21 [YY, (Z)-2-[N-(2,3-Dihydro-1H-inden-5-yl)amino]-8-[(3-methoxy-1H-pyrrol-2-yl)methylene]-3,6,7,8-tetrahydro-pyrrolo[3,2-e]-benzimidazol-7-one] | < 50% |
| COC(=O)c1ccc(Nc2nc3c4c(ccc3[nH]2)NC(=O)/C4=C\c2[nH]ccc2OC)cc1 [EE, (Z)-4-[[8-[(3-Methoxy-1H-pyrrol-2-yl)methylene]-7-oxo-3,6,7,8-tetrahydro-imidazo[4,5-e]indol-2-yl]amino]-benzoic acid methyl ester] | < 50% |
| COc1cc[nH]c1/C=C1\C(=O)Nc2ccc3[nH]c(NCCCCc4ccccc4)nc3c21 [JJ, (Z)-8-[(3-Methoxy-1H-pyrrol-2-yl)methylene]-2-[N-(4-phenylbutyl)amino]-3,6,7,8-tetrahydro-pyrrolo[3,2-e]benzimidazol-7-one] | < 50% |
| CCOC(=O)c1ccc(Nc2nc3c4c(ccc3[nH]2)NC(=O)/C4=C\c2[nH]ccc2OC)cc1 [CC, (Z)-4-[[8-[(3-Methoxy-1H-pyrrol-2-yl)methylene]-7-oxo-3,6,7,8-tetrahydro-imidazo[4,5-e]indol-2-yl]amino]-benzoic acid ethyl ester] | < 50% |
| COc1cc[nH]c1/C=C1\C(=O)Nc2ccc3[nH]c(NCc4cccc5ccccc45)nc3c21 [WW, (Z)-8-[(3-Methoxy-1H-pyrrol-2-yl)methylene]-2-[N-(1-naphthalenyl)methylamino]-3,6,7,8-tetrahydro-pyrrolo[3,2-e]-benzimidazol-7-one] | < 50% |

same assay, conditions: recombinant human Cyclin E/CDK2, Rb substrate, 25 minutes at room temperature

| IC50 | SMILES |
| --- | --- |
| < 3.5 µM | COc1ccc(Cc2nc3c4c(ccc3[nH]2)NC(=O)/C4=C\c2[nH]ccc2OC)cc1 [T, (Z)-2-[(4-Methoxyphenyl)methyl]-8-[(3-methoxy-1H-pyrrol-2-yl)methylene]-3,6,7,8-tetrahydro-pyrrolo[3,2-e]benzimidazol-7-one] |
| < 3.5 µM | Cc1nc[nH]c1/C=C1\C(=O)Nc2ccc(N)c(N)c21 [RR, (Z)-4,5-Diamino-1,3-dihydro-3-[(4-methyl-1H-imidazol-5-yl)methylene]-2H-indol-2-one] |
| < 3.5 µM | COCCCNc1nc2c3c(ccc2[nH]1)NC(=O)/C3=C\c1[nH]ccc1OC [X, (Z)-2-[N-(3-Methoxypropyl)amino]-8-[(3-methoxy-1H-pyrrol-2-yl)methylene]-3,6,7,8-tetrahydro-pyrrolo[3,2-e]benzimidazol-7-one] |
| < 3.5 µM | COc1cc[nH]c1/C=C1\C(=O)Nc2ccc3[nH]c(C(O)c4ccccc4)nc3c21 (racemic) [U, rac-(Z)-2-(1-Hydroxy-1-phenyl-methyl)-8-[(3-methoxy-1H-pyrrol-2-yl)methylene]-3,6,7,8-tetrahydro-pyrrolo[3,2-e]benzimidazol-7-one] |
| < 3.5 µM | COc1cc[nH]c1/C=C1\C(=O)Nc2ccc3[nH]c(NC(C)c4ccccc4)nc3c21 (racemic) [HH, rac-(Z)-8-[(3-Methoxy-1H-pyrrol-2-yl)methylene]-2-[N-(1-phenylethyl)amino]-3,6,7,8-tetrahydro-pyrrolo[3,2-e]benzimidazol-7-one] |
| < 3.5 µM | COc1cc[nH]c1/C=C1\C(=O)Nc2ccc3[nH]c(-c4ccccc4)nc3c21 [Q, (Z)-8-[(3-Methoxy-1H-pyrrol-2-yl)methylene]-2-phenyl-3,6,7,8-tatrahydro-pyrrolo[3,2-e]benzimidazol-7-one] |
| < 3.5 µM | Cc1nc[nH]c1/C=C1\C(=O)Nc2ccc([N+](=O)[O-])c(N)c21 [QQ, (Z)-4-Amino-1,3-dihydro-3-[(4-methyl-1H-imidazol-5-yl)methylene]-5-nitro-2H-indol-2-one] |
| < 3.5 µM | O=C1Nc2ccc3[nH]c(-c4ccccc4)nc3c2/C1=C/c1ccc[nH]1 [O, (Z)-2-Phenyl-8-[(1H-pyrrol-2-yl)methylene]-3,6,7,8-tetrahydro-pyrrolo[3,2-e]benzimidazol-7-one] |
| < 3.5 µM | COc1cc[nH]c1/C=C1\C(=O)Nc2ccc3[nH]c(CCCc4ccccc4)nc3c21 [W, (Z)-2-[3-(Phenyl)propyl]-8-[(3-methoxy-1H-pyrrol-2-yl)methylene]-3,6,7,8-tetrahydro-pyrrolo[3,2-e]benzimidazol-7-one] |
| < 3.5 µM | COc1cc[nH]c1/C=C1\C(=O)Nc2ccc3[nH]c(NCC4CCCO4)nc3c21 (centres unmarked) [KK, (Z)-8-[(3-Methoxy-1H-pyrrol-2-yl)methylene]-2-[N-[(2-tetrahydrofuranyl)methyl]-amino]-3,6,7,8-tetrahydro-pyrrolo[3,2-e] benzimidazol-7-one] |
| < 3.5 µM | COc1cc[nH]c1/C=C1\C(=O)Nc2ccc3[nH]c(CCc4ccc(O)cc4)nc3c21 [V, (Z)-2-[2-(4-Hydroxyphenyl)ethyl]-8-[(3-methoxy-1H-pyrrol-2-yl)methylene]-3,6,7,8-tetrahydro-pyrrolo[3,2-e]benzimidazol-7-one] |
| < 3.5 µM | COc1cc[nH]c1/C=C1\C(=O)Nc2ccc3[nH]c(-c4ccccc4O)nc3c21 [S, (Z)-2-(2-Hydroxyphenyl)-8-[(3-methoxy-1H-pyrrol-2-yl)methylene]-3,6,7,8-tetrahydro-pyrrolo[3;2-e]benzimidazol-7-one] |
| < 3.5 µM | COc1cc[nH]c1/C=C1\C(=O)Nc2ccc3[nH]c(Nc4ccc(N(C)C)cc4)nc3c21 [DD, (Z)-2-[N-(4-Dimethylaminophenyl)amino]-8-[(3-methoxy-1H-pyrrol-2-yl)methylene]-3,6,7,8-tetrahydro-pyrrolo[3,2-e]-benzimidazol-7-one] |
| < 3.5 µM | Cc1nc[nH]c1/C=C1\C(=O)Nc2ccc([N+](=O)[O-])c(F)c21 [OO, (Z)-1,3-Dihydro-4-fluoro-3-[(4-methyl-1H-imidazol-5-yl)methylene]-5-nitro-2H-indol-2-one] |
| < 3.5 µM | Cc1nc[nH]c1/C=C1\C(=O)Nc2ccc([N+](=O)[O-])c(N=[N+]=[N-])c21 [PP, (Z)-4-Azido-1,3-dihydro-3-[(4-methyl-1H-imidazol-5-yl)methylene]-5-nitro-2H-indol-2-one] |
| < 3.5 µM | COc1cc[nH]c1/C=C1\C(=O)Nc2ccc3nc[nH]c3c21 [TT, (Z)-8-[(3-Methoxy-1H-pyrrol-2-yl)methylene]-3,6,7,8-tetrahydro-pyrrolo-[3,2-e]benzimidazol-7-one] |

| SMILES | IC50 |
| --- | --- |
| Cc1nc[nH]c1/C=C1\C(=O)Nc2ccc3[nH]cnc3c21 [SS] | < 3.5 µM |
